Data from ChEMBL document CHEMBL4602619, “Covalent inactivation of Mycobacterium thermoresistibile inosine-5'-monophosphate dehydrogenase (IMPDH)” (Bioorg Med Chem Lett, 2020).
The source made the active and inactive calls. No cut-off for these calls is given here.

Tested on: Mycobacterium thermoresistibile
Assay: Covalent binding affinity to Mycobacterium thermoresistibile IMPDH deltaCBS variant assessed as adduct formation at Cys341 by measuring 330 Da shift of increment in protein mass measured under denaturing conditions by ESI-MS spectral analysis

## O=P(O)(O)OC[C@H]1O[C@@H](n2cnc3c(Cl)ncnc32)[C@H](O)[C@@H]1O
  Activity: Active
